According to article PMC3677594, “Characterization of a novel Entamoeba histolytica strain from Burkina Faso, Africa, possessing a unique hexokinase-2 gene” (Parasite, 2011):
Residue numbers refer to the chain shown, from its start.

Columns and labels:
Assay type in all cases: biochemical
HXK-2 [1] = target: T1, HXK-2 (Entamoeba dispar, UniProt O09488); test: in-gel glucokinase activity stain after IEF or starch gel; conditions: ATP; G6PDH-coupled, NADPH-formazan read-out
T1 construct: gene hxk2; native full-length enzyme in freeze-thaw lysate, resolved by IEF or starch gel
T1 sequence (O09488 1-445): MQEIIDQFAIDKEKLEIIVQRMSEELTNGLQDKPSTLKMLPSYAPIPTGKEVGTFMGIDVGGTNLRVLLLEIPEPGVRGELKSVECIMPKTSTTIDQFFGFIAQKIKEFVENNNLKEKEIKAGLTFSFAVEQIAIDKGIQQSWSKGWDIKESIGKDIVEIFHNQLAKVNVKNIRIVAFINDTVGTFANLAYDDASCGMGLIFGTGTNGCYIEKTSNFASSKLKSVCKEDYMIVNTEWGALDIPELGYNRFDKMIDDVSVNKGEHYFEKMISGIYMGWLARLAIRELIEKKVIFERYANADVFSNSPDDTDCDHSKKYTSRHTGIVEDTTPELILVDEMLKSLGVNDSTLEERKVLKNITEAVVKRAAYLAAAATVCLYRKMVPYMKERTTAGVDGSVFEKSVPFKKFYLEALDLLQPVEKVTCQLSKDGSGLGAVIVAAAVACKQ

HXK-1 [2] = target: T2, HXK-1 (Entamoeba nuttalli, UniProt C5NNG5); test: as above; conditions: ATP; G6PDH-coupled, NADPH-formazan read-out
T2 construct: native full-length enzyme in freeze-thaw lysate, resolved by IEF or starch gel
T2 sequence (C5NNG5 1-445): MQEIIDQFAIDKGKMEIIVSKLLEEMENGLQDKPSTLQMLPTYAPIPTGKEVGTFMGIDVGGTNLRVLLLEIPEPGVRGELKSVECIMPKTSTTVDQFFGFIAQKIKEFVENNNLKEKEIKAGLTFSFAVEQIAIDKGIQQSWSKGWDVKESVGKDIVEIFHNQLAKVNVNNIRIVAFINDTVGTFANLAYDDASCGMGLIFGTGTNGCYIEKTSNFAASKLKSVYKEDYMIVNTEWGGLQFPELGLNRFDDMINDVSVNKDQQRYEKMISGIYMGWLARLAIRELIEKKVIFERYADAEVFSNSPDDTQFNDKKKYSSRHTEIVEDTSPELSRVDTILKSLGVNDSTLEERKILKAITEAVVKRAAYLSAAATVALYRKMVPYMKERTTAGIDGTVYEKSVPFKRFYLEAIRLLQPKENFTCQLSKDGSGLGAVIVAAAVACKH

HXK-2 [3] = target: T3, HXK-2 (Entamoeba nuttalli, UniProt C5NNG6); test: as above; conditions: ATP; G6PDH-coupled, NADPH-formazan read-out
T3 construct: gene ENUP19_0206G0024; native full-length enzyme in freeze-thaw lysate, resolved by IEF or starch gel
T3 sequence (C5NNG6 1-445): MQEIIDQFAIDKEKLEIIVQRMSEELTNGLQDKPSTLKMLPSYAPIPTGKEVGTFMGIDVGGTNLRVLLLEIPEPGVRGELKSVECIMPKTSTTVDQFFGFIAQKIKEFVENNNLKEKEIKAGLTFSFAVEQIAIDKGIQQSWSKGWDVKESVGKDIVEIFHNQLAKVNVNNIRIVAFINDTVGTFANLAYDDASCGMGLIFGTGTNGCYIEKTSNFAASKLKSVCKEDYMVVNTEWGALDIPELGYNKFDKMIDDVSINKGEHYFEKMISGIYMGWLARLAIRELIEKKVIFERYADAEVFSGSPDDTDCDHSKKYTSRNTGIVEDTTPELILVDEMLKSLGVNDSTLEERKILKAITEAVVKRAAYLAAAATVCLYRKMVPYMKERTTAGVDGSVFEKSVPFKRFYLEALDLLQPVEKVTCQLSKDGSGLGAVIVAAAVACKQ

HXK-1 [4] = target: T4, HXK-1 (Entamoeba dispar, UniProt O09487); test: as above; conditions: ATP; G6PDH-coupled, NADPH-formazan read-out
T4 construct: gene hxk1; native full-length enzyme in freeze-thaw lysate, resolved by IEF or starch gel
T4 sequence (O09487 entry or part of it): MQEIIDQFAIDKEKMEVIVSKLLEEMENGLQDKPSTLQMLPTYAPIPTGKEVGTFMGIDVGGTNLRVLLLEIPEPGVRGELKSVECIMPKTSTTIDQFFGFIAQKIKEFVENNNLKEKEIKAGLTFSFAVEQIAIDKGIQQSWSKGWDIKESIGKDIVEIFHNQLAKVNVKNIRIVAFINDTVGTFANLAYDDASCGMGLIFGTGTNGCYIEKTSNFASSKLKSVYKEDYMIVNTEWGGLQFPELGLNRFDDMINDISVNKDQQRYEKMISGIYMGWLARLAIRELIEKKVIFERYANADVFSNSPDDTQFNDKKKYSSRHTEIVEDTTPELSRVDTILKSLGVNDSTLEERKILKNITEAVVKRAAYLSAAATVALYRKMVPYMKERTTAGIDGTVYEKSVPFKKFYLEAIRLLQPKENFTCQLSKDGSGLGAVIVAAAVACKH

HXK-2 [5] = target: T5, HXK-2 (Entamoeba histolytica, UniProt A0A8U0WP47); test: as above; conditions: ATP; G6PDH-coupled, NADPH-formazan read-out
T5 construct: gene EHI_098560; native full-length enzyme in freeze-thaw lysate, resolved by IEF or starch gel
T5 sequence (A0A8U0WP47 1-445): T3 sequence (C5NNG6 1-445) with V153I, V168I, V232I, I354M

HXK-1 [6] = target: T6, HXK-1 (Entamoeba histolytica, UniProt A0A8U0WP42); test: as above; conditions: ATP; G6PDH-coupled, NADPH-formazan read-out
T6 construct: gene EHI_098290; native full-length enzyme in freeze-thaw amoeba lysate, resolved by IEF or starch gel
T6 sequence (A0A8U0WP42 1-445): T2 sequence (C5NNG5 1-445) with G13E, V153I, V168I

HXK-2 [7] = target: T3, HXK-2; test: in-gel mannokinase activity stain after IEF; conditions: ATP; coupled with MPI, GPI and G6PDH XV, or directly with G6PDH II
HXK-1 [8] = target: T4, HXK-1; test: in-gel mannokinase activity stain after IEF; conditions: ATP; coupled with MPI, GPI and G6PDH XV, or directly with G6PDH II
HXK-1 [9] = target: T2, HXK-1; test: in-gel mannokinase activity stain after IEF; conditions: ATP; coupled with MPI, GPI and G6PDH XV, or directly with G6PDH II
HXK-2 [10] = target: T1, HXK-2; test: in-gel mannokinase activity stain after IEF; conditions: ATP; coupled with MPI, GPI and G6PDH XV, or directly with G6PDH II
HXK-1 [11] = target: T6, HXK-1; test: in-gel mannokinase activity stain after IEF; conditions: ATP; coupled with MPI, GPI and G6PDH XV, or directly with G6PDH II
HXK-2 [12] = target: T5, HXK-2; test: in-gel mannokinase activity stain after IEF; conditions: ATP; coupled with MPI, GPI and G6PDH XV, or directly with G6PDH II

Row | SMILES | in-gel glucokinase activity stain after IEF or starch gel (HXK-2 [1]) | in-gel glucokinase activity stain after IEF or starch gel (HXK-1 [2]) | in-gel glucokinase activity stain after IEF or starch gel (HXK-2 [3]) | in-gel glucokinase activity stain after IEF or starch gel (HXK-1 [4]) | in-gel glucokinase activity stain after IEF or starch gel (HXK-2 [5]) | in-gel glucokinase activity stain after IEF or starch gel (HXK-1 [6]) | in-gel mannokinase activity stain after IEF (HXK-2 [7]) | in-gel mannokinase activity stain after IEF (HXK-1 [8]) | in-gel mannokinase activity stain after IEF (HXK-1 [9]) | in-gel mannokinase activity stain after IEF (HXK-2 [10]) | in-gel mannokinase activity stain after IEF (HXK-1 [11]) | in-gel mannokinase activity stain after IEF (HXK-2 [12])
1 | OC[C@H]1OC(O)[C@H](O)[C@@H](O)[C@@H]1O (stereo partly drawn) [glucose] | substrate specificity of the HXKs of the six strains of Entamoeba spp. to phosphorylated glucose | substrate specificity of the HXKs of the six strains of Entamoeba spp. to phosphorylated glucose | substrate specificity of the HXKs of the six strains of Entamoeba spp. to phosphorylated glucose | substrate specificity of the HXKs of the six strains of Entamoeba spp. to phosphorylated glucose | substrate specificity of the HXKs of the six strains of Entamoeba spp. to phosphorylated glucose | substrate specificity of the HXKs of the six strains of Entamoeba spp. to phosphorylated glucose |  |  |  |  |  | 
2 | OC[C@H]1OC(O)[C@@H](O)[C@@H](O)[C@@H]1O (stereo partly drawn) [mannose] |  |  |  |  |  |  | no differences in mannokinase activity were observed between the isoenzymes HXK-1 and HXK-2 | no differences in mannokinase activity were observed between the isoenzymes HXK-1 and HXK-2 | no differences in mannokinase activity were observed between the isoenzymes HXK-1 and HXK-2 | no differences in mannokinase activity were observed between the isoenzymes HXK-1 and HXK-2 | no differences in mannokinase activity were observed between the isoenzymes HXK-1 and HXK-2 | no differences in mannokinase activity were observed between the isoenzymes HXK-1 and HXK-2
